Experimental data: US20250353873A1, “COMPOUNDS AND METHODS FOR MODULATING APOE EXPRESSION” (Ionis Pharmaceuticals, Inc., priority 2024, published 2025)
Strand notation (5' to 3'): a small letter for the sugar, then the base; units joined by * are phosphorothioate-linked, units joined directly phosphodiester-linked; [ ] holds rarer units or linkages, { } end groups; capitals alone tell only the bases. [ms] = mesyl phosphoramidate linkage; k = constrained ethyl (cEt); [5mC] = 5-methylcytosine; d = 2'-deoxy (DNA)

Test system: human APOE RNA
Assay: Dose-dependent inhibition of human APOE RNA in HepG2 cells, electroporation, 50,000 cells per well, RT-PCR normalized to GAPDH (Example 4, Tables 8-10)
Format: cell-based
Conditions: 5 nM; HepG2, electroporation, 24-hour treatment
How it was run: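 Readout is percent APOE RNA versus untreated controls, measured by RT-PCR (primer probe set RTS3073) and normalized to human GAPDH. Modified oligonucleotides were delivered by electroporation at varying doses into HepG2 cells plated at 50,000 per well.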

Substance	APOE RNA (% UTC)
1747050 (k[5mC]*kT*kT*dG[ms]dG[ms]kT*dG[ms]dA[ms]dA[ms]dT*d[5mC]*dT*dT*dT*dA[ms]dT*kT*dA[ms]dA[ms]kA; antisense) [Compound 1747050]	182 % UTC

Same assay, conditions: 13 nM; HepG2, electroporation, 24-hour treatment

Substance	APOE RNA (% UTC)
1747050 (k[5mC]*kT*kT*dG[ms]dG[ms]kT*dG[ms]dA[ms]dA[ms]dT*d[5mC]*dT*dT*dT*dA[ms]dT*kT*dA[ms]dA[ms]kA; antisense) [Compound 1747050]	135 % UTC

Same assay, conditions: 33 nM; HepG2, electroporation, 24-hour treatment

Substance	APOE RNA (% UTC)
1747050 (k[5mC]*kT*kT*dG[ms]dG[ms]kT*dG[ms]dA[ms]dA[ms]dT*d[5mC]*dT*dT*dT*dA[ms]dT*kT*dA[ms]dA[ms]kA; antisense) [Compound 1747050]	115 % UTC

Same assay, conditions: 82 nM; HepG2, electroporation, 24-hour treatment

Substance	APOE RNA (% UTC)
1747050 (k[5mC]*kT*kT*dG[ms]dG[ms]kT*dG[ms]dA[ms]dA[ms]dT*d[5mC]*dT*dT*dT*dA[ms]dT*kT*dA[ms]dA[ms]kA; antisense) [Compound 1747050]	111 % UTC

Same assay, conditions: 205 nM; HepG2, electroporation, 24-hour treatment

Substance	APOE RNA (% UTC)
1747050 (k[5mC]*kT*kT*dG[ms]dG[ms]kT*dG[ms]dA[ms]dA[ms]dT*d[5mC]*dT*dT*dT*dA[ms]dT*kT*dA[ms]dA[ms]kA; antisense) [Compound 1747050]	110 % UTC

Same assay, conditions: 512 nM; HepG2, electroporation, 24-hour treatment

Substance	APOE RNA (% UTC)
1747050 (k[5mC]*kT*kT*dG[ms]dG[ms]kT*dG[ms]dA[ms]dA[ms]dT*d[5mC]*dT*dT*dT*dA[ms]dT*kT*dA[ms]dA[ms]kA; antisense) [Compound 1747050]	76 % UTC

Same assay, conditions: 1,280 nM; HepG2, electroporation, 24-hour treatment

Substance	APOE RNA (% UTC)
1747050 (k[5mC]*kT*kT*dG[ms]dG[ms]kT*dG[ms]dA[ms]dA[ms]dT*d[5mC]*dT*dT*dT*dA[ms]dT*kT*dA[ms]dA[ms]kA; antisense) [Compound 1747050]	49 % UTC

Same assay, conditions: 3,200 nM; HepG2, electroporation, 24-hour treatment

Substance	APOE RNA (% UTC)
1747050 (k[5mC]*kT*kT*dG[ms]dG[ms]kT*dG[ms]dA[ms]dA[ms]dT*d[5mC]*dT*dT*dT*dA[ms]dT*kT*dA[ms]dA[ms]kA; antisense) [Compound 1747050]	31 % UTC

Same assay, conditions: 8,000 nM; HepG2, electroporation, 24-hour treatment

Substance	APOE RNA (% UTC)
1747050 (k[5mC]*kT*kT*dG[ms]dG[ms]kT*dG[ms]dA[ms]dA[ms]dT*d[5mC]*dT*dT*dT*dA[ms]dT*kT*dA[ms]dA[ms]kA; antisense) [Compound 1747050]	14 % UTC

Same assay, conditions: 20,000 nM; HepG2, electroporation, 24-hour treatment

Substance	APOE RNA (% UTC)
1747050 (k[5mC]*kT*kT*dG[ms]dG[ms]kT*dG[ms]dA[ms]dA[ms]dT*d[5mC]*dT*dT*dT*dA[ms]dT*kT*dA[ms]dA[ms]kA; antisense) [Compound 1747050]	10 % UTC

Same assay, conditions: HepG2, electroporation, 24-hour treatment

Substance	IC50
1747050 (k[5mC]*kT*kT*dG[ms]dG[ms]kT*dG[ms]dA[ms]dA[ms]dT*d[5mC]*dT*dT*dT*dA[ms]dT*kT*dA[ms]dA[ms]kA; antisense) [Compound 1747050]	1540 nM

Test system: human APOE RNA
Assay: Activity in APOE C57BL/6NTac-Apoeem7250 knock-in mice, single ICV bolus, 4 weeks (Example 10)
Format: in vivo
Conditions: cortex; single ICV bolus 300 μg; 4 weeks post treatment; normalized to mouse Ppia
How it was run: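 Human APOE RNA, quantified by real-time RT-PCR with RTS3073 and normalized to mouse Ppia, was read in cortical brain and spinal cord 4 weeks post dosing. Dosing was a single ICV bolus of 300 μg per knock-in mouse; values are % of PBS-treated animals.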

Substance	APOE RNA (% control) Cortex
1747050 (k[5mC]*kT*kT*dG[ms]dG[ms]kT*dG[ms]dA[ms]dA[ms]dT*d[5mC]*dT*dT*dT*dA[ms]dT*kT*dA[ms]dA[ms]kA; antisense) [Compound 1747050]	29 % control

Same assay, conditions: spinal cord; single ICV bolus 300 μg; 4 weeks post treatment; normalized to mouse Ppia

Substance	APOE RNA (% control) Spinal Cord
1747050 (k[5mC]*kT*kT*dG[ms]dG[ms]kT*dG[ms]dA[ms]dA[ms]dT*d[5mC]*dT*dT*dT*dA[ms]dT*kT*dA[ms]dA[ms]kA; antisense) [Compound 1747050]	45 % control

Test system: human APOE RNA
Assay: Activity in APOE C57BL/6NTac-Apoeem7250 knock-in mice, single ICV bolus, 8 weeks (Example 11)
Format: in vivo
Conditions: cortex; single ICV bolus 300 μg; 8 weeks post treatment; normalized to mouse Ppia
How it was run: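 Cortical and spinal cord human APOE RNA quantified by RT-qPCR 8 weeks after a single 300 μg ICV dose in knock-in mice, Ppia-normalized. Values are percent of levels in PBS-treated animals.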

Substance	APOE RNA (% control) Cortex
1747050 (k[5mC]*kT*kT*dG[ms]dG[ms]kT*dG[ms]dA[ms]dA[ms]dT*d[5mC]*dT*dT*dT*dA[ms]dT*kT*dA[ms]dA[ms]kA; antisense) [Compound 1747050]	36 % control

Same assay, conditions: spinal cord; single ICV bolus 300 μg; 8 weeks post treatment; normalized to mouse Ppia

Substance	APOE RNA (% control) Spinal Cord
1747050 (k[5mC]*kT*kT*dG[ms]dG[ms]kT*dG[ms]dA[ms]dA[ms]dT*d[5mC]*dT*dT*dT*dA[ms]dT*kT*dA[ms]dA[ms]kA; antisense) [Compound 1747050]	23 % control

Test system: human APOE RNA
Assay: Duration of action study in APOE C57BL/6NTac-Apoeem7250 knock-in mice (Example 16)
Format: in vivo
Conditions: cortex; 300 μg ICV; 112 days post-dose
Procedure: Modified oligonucleotides described above were tested in the APOE C57BL/6NTac-Apoeem7250 knock-in mouse model described above.
APOE C57BL/6NTac-Apoeem7250 knock-in mice were divided into groups of 2-4 mice each. Each mouse received a single intracerebroventricular (ICV) bolus of 300 μg of modified oligonucleotide. A group of 2-4 mice received a single ICV bolus with PBS as a negative control.
Mice were sacrificed at various timepoints as indicated in the table below and RNA was extracted from cortical brain tissue and spinal cord for quantitative real-time RT-PCR analysis of RNA expression of APOE using primer probe set RTS3073 (described herein above). APOE RNA levels were normalized to mouse Ppia. Mouse Ppia was amplified using primer probe set m_cyclo24 (described herein above). Results are presented as percent human APOE RNA relative to the amount of human APOE RNA in PBS treated animals, (% control). Each experiment is identified in separate tables below.

Substance	APOE RNA (% control) Cortex
1747050 (k[5mC]*kT*kT*dG[ms]dG[ms]kT*dG[ms]dA[ms]dA[ms]dT*d[5mC]*dT*dT*dT*dA[ms]dT*kT*dA[ms]dA[ms]kA; antisense) [Compound 1747050]	63 % control

Same assay, conditions: cortex; 300 μg ICV; 140 days post-dose

Substance	APOE RNA (% control) Cortex
1747050 (k[5mC]*kT*kT*dG[ms]dG[ms]kT*dG[ms]dA[ms]dA[ms]dT*d[5mC]*dT*dT*dT*dA[ms]dT*kT*dA[ms]dA[ms]kA; antisense) [Compound 1747050]	74 % control

Same assay, conditions: spinal cord; 300 μg ICV; 112 days post-dose

Substance	APOE RNA (% control) Spinal Cord
1747050 (k[5mC]*kT*kT*dG[ms]dG[ms]kT*dG[ms]dA[ms]dA[ms]dT*d[5mC]*dT*dT*dT*dA[ms]dT*kT*dA[ms]dA[ms]kA; antisense) [Compound 1747050]	93 % control

Same assay, conditions: spinal cord; 300 μg ICV; 140 days post-dose

Substance	APOE RNA (% control) Spinal Cord
1747050 (k[5mC]*kT*kT*dG[ms]dG[ms]kT*dG[ms]dA[ms]dA[ms]dT*d[5mC]*dT*dT*dT*dA[ms]dT*kT*dA[ms]dA[ms]kA; antisense) [Compound 1747050]	86 % control
